Data taken from US11739101B2, “Bifunctional degraders of hematopoietic progenitor kinase and therapeutic uses thereof” (Nurix Therapeutics, Inc., priority 2020, dated 2023).

What follows are molecules tested against T1, HPK1 (Homo sapiens, UniProt Q92918) (assay: HPK1 Cellular HiBiT Degradation Assay). Conditions: HiBiT-tagged HPK1 Jurkat cells, 24 hours, 10 uM to 0.1 nM; Dmax = 100 minus lowest % HPK1 remaining vs DMSO vehicle.
T1 construct: A HiBiT tag was introduced by CRISPR on the N terminus of HPK1 in Jurkat cells; host or cells: Jurkat (ATCC TIB-152), monoclonal CRISPR HiBiT knock-in line
Type: cell-based
How it was run: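 Dmax is derived from four-parameter curves of % HPK1 remaining, as 100 minus the lowest value, normalized to DMSO-treated cells with parental Jurkat background subtracted. HiBiT-HPK1 knock-in Jurkat cells got compound for 24 hours (final 10 uM to 0.1 nM, 11 points) before lytic HiBiT luminescence. Cytotoxicity was checked on parallel CellTiter-Glo plates.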

T1 sequence (Q92918 whole entry): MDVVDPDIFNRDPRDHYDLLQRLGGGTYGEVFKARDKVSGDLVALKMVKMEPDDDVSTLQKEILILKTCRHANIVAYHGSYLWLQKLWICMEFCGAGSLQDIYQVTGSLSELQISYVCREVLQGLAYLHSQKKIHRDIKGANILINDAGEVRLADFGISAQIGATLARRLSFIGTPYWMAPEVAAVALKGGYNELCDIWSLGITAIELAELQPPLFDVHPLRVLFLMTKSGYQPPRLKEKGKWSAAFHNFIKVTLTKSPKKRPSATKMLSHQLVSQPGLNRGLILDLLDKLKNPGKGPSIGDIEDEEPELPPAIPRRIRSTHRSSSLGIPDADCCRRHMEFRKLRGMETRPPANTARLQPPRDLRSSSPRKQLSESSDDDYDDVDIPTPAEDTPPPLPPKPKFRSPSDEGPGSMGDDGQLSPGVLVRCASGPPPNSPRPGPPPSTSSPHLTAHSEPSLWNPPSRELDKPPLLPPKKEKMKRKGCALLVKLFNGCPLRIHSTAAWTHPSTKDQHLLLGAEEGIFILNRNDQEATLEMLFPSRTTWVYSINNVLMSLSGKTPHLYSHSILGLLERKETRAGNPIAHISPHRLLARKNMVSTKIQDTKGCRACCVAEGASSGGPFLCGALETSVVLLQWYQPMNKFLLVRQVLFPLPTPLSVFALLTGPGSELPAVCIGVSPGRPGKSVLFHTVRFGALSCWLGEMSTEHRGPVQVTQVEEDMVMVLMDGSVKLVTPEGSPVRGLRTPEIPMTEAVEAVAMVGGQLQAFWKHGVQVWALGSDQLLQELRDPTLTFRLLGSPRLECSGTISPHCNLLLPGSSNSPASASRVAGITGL

Row | Compound | Dmax [%] | Cellular HPK1 HiBiT: Dmax (%)
1 | Cc1cc(F)c(Nc2nc(-c3ccc4c(c3)N([C@H]3C[C@@H](N5CCCCC5)C3)C(=O)C43CCN(C(=O)[C@@H]4CCN(C(=O)c5cnc(N6CCN(c7cccc8c7C(=O)N(C7CCC(=O)NC7=O)C8=O)CC6)cn5)C4)CC3)cc3ncn(C(C)C)c23)cc1C(=O)NC(C)C (stereo partly drawn) [Example 86, 5-((6-(1′-((3R)-1-(5-(4-(2-(2,6-dioxopiperidin-3-yl)-1,3-dioxoisoindolin-4-yl)piperazin-1-yl)pyrazine-2-carbonyl)pyrrolidine-3-carbonyl)-2-oxo-1-((1s,3s)-3-(piperidin-1-yl)cyclobutyl)spiro[indoline-3,4′-piperidin]-6-yl)-3-isopropyl-3H-imidazo[4,5-c]pyridin-4-yl)amino)-4-fluoro-N-isopropyl-2-methylbenzamide] | 45 to 65 | –
2 | Cc1cc(F)c(Nc2nc(-c3ccc4c(c3)N(C3CC(N5CCCCC5)C3)C(=O)C43CCN(C(=O)C4CCN(C(=O)C5CCN(c6ccc7c(c6)C(=O)N(C6CCC(=O)NC6=O)C7=O)CC5)CC4)CC3)cc3ncn(C(C)C)c23)cc1C(=O)NC(C)C (stereo not drawn) [Example 41, 5-[(6-{1′-[1-(1-{2-[2,6-dioxopiperidin-3-yl]-1,3-dioxo-2,3-dihydro-1H-isoindol-5-yl}piperidine-4-carbonyl)piperidine-4-carbonyl]-2-oxo-1-[(1s,3s)-3-(piperidin-1-yl)cyclobutyl]-1,2-dihydrospiro[indole-3,4′-piperidin]-6-yl}-3-(propan-2-yl)-3H-imidazo[4,5-c]pyridin-4-yl)amino]-4-fluoro-2-methyl-N-(propan-2-yl)benzamide] | – | B (45%≤B≤65%)
3 | Cc1cc(F)c(Nc2nc(-c3ccc4c(c3)N([C@H]3C[C@@H](N5CCCCC5)C3)C(=O)C43CCN(C(=O)CN4CCN(CC(=O)N[C@H](C(=O)N5C[C@H](O)C[C@H]5C(=O)N[C@@H](C)c5ccc(-c6scnc6C)cc5)C(C)(C)C)CC4)CC3)cc3ncn(C(C)C)c23)cc1C(=O)NC(C)C [Example 18, (2S,4R)-1-((S)-2-(2-(4-(2-(6-(4-((2-fluoro-5-(isopropylcarbamoyl)-4-methylphenyl)amino)-3-isopropyl-3H-imidazo[4,5-c]pyridin-6-yl)-2-oxo-1-((1s,3s)-3-(piperidin-1-yl)cyclobutyl)spiro[indoline-3,4′-piperidin]-1′-yl)-2-oxoethyl)piperazin-1-yl)acetamido)-3,3-dimethylbutanoyl)-4-hydroxy-N—((S)-1-(4-(4-methylthiazol-5-yl)phenyl)ethyl)pyrrolidine-2-carboxamide] | 45 to 65 | –
4 | Cc1cc(F)c(Nc2nc(-c3ccc4c(c3)N([C@H]3C[C@@H](N5CCCCC5)C3)C(=O)C43CCN(C(=O)C[C@@H]4CCN(C(=O)[C@H]5CC[C@H](Nc6cccc7c6C(=O)N(C6CCC(=O)NC6=O)C7=O)CC5)C4)CC3)cc3ncn(C(C)C)c23)cc1C(=O)NC(C)C (stereo partly drawn) [Example 56, 4-fluoro-2-methyl-5-{[6-(2-oxo-1′-{2-[(3S)-1-[(1R,4R)-4-({2-[2,6-dioxopiperidin-3-yl]-1,3-dioxo-2,3-dihydro-1H-isoindol-4-yl}amino)cyclohexanecarbonyl]pyrrolidin-3-yl]acetyl}-1-[(1s,3s)-3-(piperidin-1-yl)cyclobutyl]-1,2-dihydrospiro[indole-3,4′-piperidin]-6-yl)-3-(propan-2-yl)-3H-imidazo[4,5-c]pyridin-4-yl]amino}-N-(propan-2-yl)benzamide] | < 45 | –
5 | Cc1cc(F)c(Nc2nc(-c3ccc4c(c3)N([C@H]3C[C@@H](N5CCCCC5)C3)C(=O)C43CCN(C(=O)[C@@H]4CCN(C(=O)C[C@H]5CC[C@H](Nc6cccc7c6C(=O)N(C6CCC(=O)NC6=O)C7=O)CC5)C4)CC3)cc3ncn(C(C)C)c23)cc1C(=O)NC(C)C (stereo partly drawn) [Example 82, 5-((6-(1′-((3R)-1-(2-((1R,4R)-4-((2-(2,6-dioxopiperidin-3-yl)-1,3-dioxoisoindolin-4-yl)amino)cyclohexyl)acetyl)pyrrolidine-3-carbonyl)-2-oxo-1-((1s,3s)-3-(piperidin-1-yl)cyclobutyl)spiro[indoline-3,4′-piperidin]-6-yl)-3-isopropyl-3H-imidazo[4,5-c]pyridin-4-yl)amino)-4-fluoro-N-isopropyl-2-methylbenzamide] | 45 to 65 | –
6 | Cc1cc(F)c(Nc2nc(-c3ccc4c(c3)N([C@H]3C[C@@H](N5CCCCC5)C3)C(=O)C43CCN(C(=O)OC4CCN(C(=O)C5CCN(c6ccc7c(c6)C(=O)N(C6CCC(=O)NC6=O)C7=O)CC5)CC4)CC3)cc3ncn(C(C)C)c23)cc1C(=O)NC(C)C (stereo partly drawn) [Example 55, 1-(1-{2-[2,6-dioxopiperidin-3-yl]-1,3-dioxoisoindol-5-yl}piperidine-4-carbonyl)piperidin-4-yl 6-(4-{[2-fluoro-5-(isopropylcarbamoyl)-4-methylphenyl]amino}-3-isopropylimidazo[4,5-c]pyridin-6-yl)-2-oxo-1-[(1s,3s)-3-(piperidin-1-yl)cyclobutyl]spiro[indole-3,4′-piperidine]-1′-carboxylate] | > 65 | –
7 | Cc1cc(F)c(Nc2nc(-c3ccc4c(c3)N([C@H]3C[C@@H](N5CCCCC5)C3)C(=O)C43CCN(C(=O)C4CN(C5CCN(c6ccc7c(c6)C(=O)N(C6CCC(=O)NC6=O)C7=O)CC5)C4)CC3)cc3ncn(C(C)C)c23)cc1C(=O)NC(C)C (stereo partly drawn) [Example 24, 5-[(6-{1′-[1-(1-{2-[2,6-dioxopiperidin-3-yl]-1,3-dioxo-2,3-dihydro-1H-isoindol-5-yl}piperidin-4-yl)azetidine-3-carbonyl]-2-oxo-1-[(1s,3s)-3-(piperidin-1-yl)cyclobutyl]-1,2-dihydrospiro[indole-3,4′-piperidin]-6-yl}-3-(propan-2-yl)-3H-imidazo[4,5-c]pyridin-4-yl)amino]-4-fluoro-2-methyl-N-(propan-2-yl)benzamide] | < 45 | –
8 | Cc1cc(F)c(Nc2nc(-c3ccc4c(c3)N(C3CC(N5CCCCC5)C3)C(=O)C43CCN(C(=O)CCOCCOCCOCCNc4ccc5c(c4)C(=O)N(C4CCC(=O)NC4=O)C5=O)CC3)cc3ncn(C(C)C)c23)cc1C(=O)NC(C)C (stereo not drawn) [Example 5, 5-((6-(1′-(3-(2-(2-(2-((2-(2,6-dioxopiperidin-3-yl)-1,3-dioxoisoindolin-5-yl)amino)ethoxy)ethoxy)ethoxy)propanoyl)-2-oxo-1-((1s,3s)-3-(piperidin-1-yl)cyclobutyl)spiro[indoline-3,4′-piperidin]-6-yl)-3-isopropyl-3H-imidazo[4,5-c]pyridin-4-yl)amino)-4-fluoro-N-isopropyl-2-methylbenzamide] | < 45 | –
9 | Cc1cc(F)c(Nc2nc(-c3ccc4c(c3)N([C@H]3C[C@@H](N5CCCCC5)C3)C(=O)C43CCN(C(=O)C[C@H]4CCN(C(=O)[C@H]5CC[C@H](Nc6cccc7c6C(=O)N(C6CCC(=O)NC6=O)C7=O)CC5)C4)CC3)cc3ncn(C(C)C)c23)cc1C(=O)NC(C)C (stereo partly drawn) [Example 57, 4-fluoro-2-methyl-5-{[6-(2-oxo-1′-{2-[(3R)-1-[(1R,4R)-4-({2-[2,6-dioxopiperidin-3-yl]-1,3-dioxo-2,3-dihydro-1H-isoindol-4-yl}amino)cyclohexanecarbonyl]pyrrolidin-3-yl]acetyl}-1-[(1s,3s)-3-(piperidin-1-yl)cyclobutyl]-1,2-dihydrospiro[indole-3,4′-piperidin]-6-yl)-3-(propan-2-yl)-3H-imidazo[4,5-c]pyridin-4-yl]amino}-N-(propan-2-yl)benzamide] | < 45 | –
10 | Cc1cc(F)c(Nc2nc(-c3ccc4c(c3)N([C@H]3C[C@@H](N5CCCCC5)C3)C(=O)C43CCN(C(=O)CCOCCOCCOCCOc4cc(-c5scnc5C)ccc4CNC(=O)[C@H]4C[C@H](O)CN4C(=O)[C@H](NC(=O)C4(F)CC4)C(C)(C)C)CC3)cc3ncn(C(C)C)c23)cc1C(=O)NC(C)C [Example 9, (2S,4R)—N-(2-(2-(2-(2-(3-(6-(4-((2-fluoro-5-(isopropylcarbamoyl)-4-methylphenyl)amino)-3-isopropyl-3H-imidazo[4,5-c]pyridin-6-yl)-2-oxo-1-((1s,3s)-3-(piperidin-1-yl)cyclobutyl)spiro[indoline-3,4′-piperidin]-1′-yl)-3-oxopropoxy)ethoxy)ethoxy)ethoxy)-4-(4-methylthiazol-5-yl)benzyl)-1-((S)-2-(1-Fluorocyclopropane-1-carboxamido)-3,3-dimethylbutanoyl)-4-hydroxypyrrolidine-2-carboxamide] | < 45 | –
11 | Cc1cc(F)c(Nc2nc(-c3ccc4c(c3)N([C@H]3C[C@@H](N5CCCCC5)C3)C(=O)C43CCN(C(=O)CN4CCC(CCCCC(=O)N[C@H](C(=O)N5C[C@H](O)C[C@H]5C(=O)N[C@@H](C)c5ccc(-c6scnc6C)cc5)C(C)(C)C)CC4)CC3)cc3ncn(C(C)C)c23)cc1C(=O)NC(C)C [Example 19, (2S,4R)-1-((S)-2-(5-(1-(2-(6-(4-((2-fluoro-5-(isopropylcarbamoyl)-4-methylphenyl)amino)-3-isopropyl-3H-imidazo[4,5-c]pyridin-6-yl)-2-oxo-1-((1s,3s)-3-(piperidin-1-yl)cyclobutyl)spiro[indoline-3,4′-piperidin]-1′-yl)-2-oxoethyl)piperidin-4-yl)pentanamido)-3,3-dimethylbutanoyl)-4-hydroxy-N—((S)-1-(4-(4-methylthiazol-5-yl)phenyl)ethyl)pyrrolidine-2-carboxamide] | < 45 | –
12 | Cc1cc(F)c(Nc2nc(-c3ccc4c(c3)N([C@H]3C[C@@H](N5CCCCC5)C3)C(=O)C43CCN(C(=O)C[C@H]4CC[C@H](Nc5cccc6c5C(=O)N(C5CCC(=O)NC5=O)C6=O)CC4)CC3)cc3ncn(C(C)C)c23)cc1C(=O)NC(C)C (stereo partly drawn) [Example 80, 5-((6-(1′-(2-((1R,4R)-4-((2-(2,6-dioxopiperidin-3-yl)-1,3-dioxoisoindolin-4-yl)amino)cyclohexyl)acetyl)-2-oxo-1-((1s,3s)-3-(piperidin-1-yl)cyclobutyl)spiro[indoline-3,4′-piperidin]-6-yl)-3-isopropyl-3H-imidazo[4,5-c]pyridin-4-yl)amino)-4-fluoro-N-isopropyl-2-methylbenzamide] | 45 to 65 | –
